# Literature values, collected in patent publication US20090215859A1, “Compositions and methods for modulating dhr96” (priority 2004, published 2009).
# What was measured:
# GAL4-USP fusion protein = target: T1, GAL4-USP fusion protein (Drosophila melanogaster, UniProt P20153+P34021); settings: dependent on its EcR partner; cited from earlier work
# T1 construct: host or cells: tissues dissected from transgenic Drosophila larvae
# T1 sequence (P20153 239-498 limits assumed): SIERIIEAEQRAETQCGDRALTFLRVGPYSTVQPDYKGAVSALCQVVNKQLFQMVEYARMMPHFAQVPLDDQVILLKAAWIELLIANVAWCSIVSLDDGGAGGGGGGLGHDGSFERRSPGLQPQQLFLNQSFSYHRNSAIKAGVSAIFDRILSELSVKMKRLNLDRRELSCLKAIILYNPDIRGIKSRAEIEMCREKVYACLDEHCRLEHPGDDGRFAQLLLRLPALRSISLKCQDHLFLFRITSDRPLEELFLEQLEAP
# T1 sequence (P34021 1-878): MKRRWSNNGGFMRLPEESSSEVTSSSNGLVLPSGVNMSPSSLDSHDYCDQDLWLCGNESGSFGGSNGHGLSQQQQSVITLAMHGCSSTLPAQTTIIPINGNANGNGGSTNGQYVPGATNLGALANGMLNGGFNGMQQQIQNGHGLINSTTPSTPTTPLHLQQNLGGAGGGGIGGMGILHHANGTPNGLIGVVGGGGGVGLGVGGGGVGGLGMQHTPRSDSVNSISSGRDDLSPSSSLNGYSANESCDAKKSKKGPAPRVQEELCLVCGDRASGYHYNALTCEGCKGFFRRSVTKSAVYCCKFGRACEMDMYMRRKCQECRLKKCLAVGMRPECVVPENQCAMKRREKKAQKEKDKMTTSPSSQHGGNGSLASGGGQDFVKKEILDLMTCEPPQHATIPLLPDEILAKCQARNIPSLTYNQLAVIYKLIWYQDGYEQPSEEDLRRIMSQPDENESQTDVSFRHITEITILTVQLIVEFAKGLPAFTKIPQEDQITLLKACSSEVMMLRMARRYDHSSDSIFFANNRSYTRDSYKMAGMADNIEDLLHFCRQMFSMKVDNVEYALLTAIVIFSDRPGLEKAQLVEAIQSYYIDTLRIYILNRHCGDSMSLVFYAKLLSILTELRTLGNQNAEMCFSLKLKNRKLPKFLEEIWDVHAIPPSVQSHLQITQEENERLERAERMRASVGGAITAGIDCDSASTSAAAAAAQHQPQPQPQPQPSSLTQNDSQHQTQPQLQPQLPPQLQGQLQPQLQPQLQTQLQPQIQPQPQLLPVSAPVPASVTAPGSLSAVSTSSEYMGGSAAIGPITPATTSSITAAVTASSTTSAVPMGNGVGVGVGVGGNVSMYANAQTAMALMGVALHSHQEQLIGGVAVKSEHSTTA
# DHR38 = settings: cultured larval organs; cited from earlier work
# PXR = target: T2, PXR (Homo sapiens, UniProt O75469); settings: cited from earlier work
# T2 sequence (O75469 1-434): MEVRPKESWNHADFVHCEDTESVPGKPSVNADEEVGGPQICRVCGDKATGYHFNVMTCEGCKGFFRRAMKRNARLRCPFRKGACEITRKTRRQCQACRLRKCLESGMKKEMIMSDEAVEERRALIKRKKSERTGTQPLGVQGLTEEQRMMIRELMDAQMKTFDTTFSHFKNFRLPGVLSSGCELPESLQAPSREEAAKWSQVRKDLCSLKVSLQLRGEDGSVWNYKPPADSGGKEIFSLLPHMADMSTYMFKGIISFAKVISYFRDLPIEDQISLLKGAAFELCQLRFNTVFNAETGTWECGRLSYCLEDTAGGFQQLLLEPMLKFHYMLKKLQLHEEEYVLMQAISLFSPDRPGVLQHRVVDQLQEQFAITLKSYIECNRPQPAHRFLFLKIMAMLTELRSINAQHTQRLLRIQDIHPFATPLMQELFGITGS
structure (smiles),measurement,setting,value
CC(C)(O)CC[C@@H](O)[C@](C)(O)[C@H]1CC[C@@]2(O)C3=CC(=O)[C@@H]4C[C@@H](O)[C@@H](O)C[C@]4(C)[C@H]3CC[C@]12C [20-hydroxyecdysone],Activation of the GAL4-USP fusion protein,GAL4-USP fusion protein,potent activator
same,Activation of DHR38 in the GAL4-LBD system,DHR38,not
COc1cc2c(cc1O)CCN[C@]21CS[C@@H]2c3c(OC(C)=O)c(C)c4c(c3[C@H](COC1=O)N1[C@@H]2[C@H]2c3c(cc(C)c(OC)c3O)C[C@@H]([C@@H]1O)N2C)OCO4 [ecteinascidin-743],Action on PXR,PXR,antagonist
